Laboratory results reported in patent US8952199B2, “Methods of and formulations for reducing and inhibiting the growth of the concentration of microbes in water-based fluids and systems used with them” (Dow Global Technologies LLC, priority 2007, dated 2015).

Key:
Type in all cases: cell-based
[1] = tested on: mixed oil/gas field aerobic bacteria; assay: Biocidal efficacy against mixed oil/gas field aerobic bacteria in sterile salt solution, serial dilution count; settings: for Concentration required to achieve at least 3 log reduction of aerobic bacteria: active, 37° C.
Protocol: A sterile salt solution (1.2490 g NaCl, 2.9290 g NaHCO3, 0.1910 g Na2CO3, 0.0060 g Na2SO4, 0.033 g CaCl2, and 0.0590 g MgCl2.6H2O in 1 L water) is contaminated with mixed oil/gas field aerobic bacteria at final bacterial concentrations of ˜10^7 CFU/mL. At day zero, either glutaraldehyde (UCARCIDE™ 250, 50% glutaraldehyde in water, The Dow Chemical Company) or THPS (AQUCAR™ THPS 75, 75% THPS in water, The Dow Chemical Company) is added and the solution mixed well to provide a desired final concentration. The solution is then incubated at 37° C. Bacterial populations are monitored over time using a serial dilution method. In experiments running over seven days, samples are reinoculated at day seven. […]

[2] = tested on: mixed oil/gas field anaerobic sulfate reducing bacteria; assay: Biocidal efficacy against mixed oil/gas field anaerobic sulfate reducing bacteria in deaerated salt solution, serial dilution count; settings: for Concentration required to achieve at lease 3 log bacterial reduction in 1 hr / Concentration required to achieve at least 3 log reduction of anaerobic sulfate reducing bacteria: active; for Concentration required to achieve at lease 3 log bacterial reduction in 1 hr: biocide alone, anaerobic oil/gas field SRB bacteria; for Concentration required to achieve at least 3 log reduction of anaerobic sulfate reducing bacteria: 37° C.
Protocol: A sterile salt solution as described in Example 1 is deaerated, then contaminated with mixed oil/gas field anaerobic sulfate reducing bacteria at final bacterial concentrations of ˜10^7 CFU/mL. At time=zero, either glutaraldehyde (UCARCIDE™ 250) or THPS (AQUCAR™ THPS 75) is added and the solution mixed well to provide a desired final concentration. The solutions are incubated at 37° C. in an anaerobic environment (Bactron III anaerobic chamber). Bacterial populations are monitored over time using a serial dilution method. In experiments running over seven days, samples are reinoculated at day seven.
(§1) The testing protocols described in Examples 1 and 2, respectively, are used for oil/gas field aerobic bacteria and anaerobic sulfate reducing bacteria. For the standard bacterial strains Enterobacter aerogenes ATCC 13048, Salmonella choleraesius ATCC 10708, Pseudomonas aeruginosa ATCC 10145, Staphylococcus aureus ATCC 6538, Klebsiella pneumoniae ATCC 8308, Bacillus subtillus ATCC 8473, Escherichia coli ATCC 11229, and Pseudomonas aeruginosa ATCC 39451, separate experiments are performed as described in Example 1, but using a sterile 0.85% NaCl solution instead of the salt solution. For standard marine bacteria Pseudomonas sp. ATCC 39451, experiments are performed as described in Examples 1 and 2, but at pH 8.0 using artificial sea water (24.6 g NaCl, 0.67 g KCl, 1.36 g CaCl2.2H2O, 6.29 g MgSO4.7H2O, 4.66 g MgCl2.6H2O and 0.18 g NaHCO3 in 1 L water). All data is collected at time=1 hour.

[3] = tested on: Aerobic bacteria (ATCC bacterial strains, oil/gas field aerobic bacteria, standard marine bacterium); assay: Concentration for at least 3 log reduction in 1 hr, aerobic bacteria (one value for ATCC strains, oil/gas field aerobic bacteria and standard marine bacterium); settings: active, biocide alone
Protocol: A sterile salt solution (1.2490 g NaCl, 2.9290 g NaHCO3, 0.1910 g Na2CO3, 0.0060 g Na2SO4, 0.033 g CaCl2, and 0.0590 g MgCl2.6H2O in 1 L water) is contaminated with mixed oil/gas field aerobic bacteria at final bacterial concentrations of ˜10^7 CFU/mL. At day zero, either glutaraldehyde (UCARCIDE™ 250, 50% glutaraldehyde in water, The Dow Chemical Company) or THPS (AQUCAR™ THPS 75, 75% THPS in water, The Dow Chemical Company) is added and the solution mixed well to provide a desired final concentration. The solution is then incubated at 37° C. Bacterial populations are monitored over time using a serial dilution method. In experiments running over seven days, samples are reinoculated at day seven.
as §1, with “ATCC 39451, experiments are performed as described in Examples 1 and 2, but at pH 8.0 using artificial sea water (24.6 g NaCl, 0.67 g KCl, 1.36 g CaCl2.2H2O, 6.29 g MgSO4.7H2O, 4.66 g MgCl2.6H2O and 0.18 g NaHCO3 in 1 L water). All data is collected at time=1 hour.” left out

[4] = time interval 8 days, reinoculated at day seven
[5] = time interval 9 days, reinoculated at day seven

| Molecule | Concentration required to achieve at least 3 log reduction of aerobic bacteria ([1]; time interval 2 hrs) [ppm] | Concentration required to achieve at least 3 log reduction of aerobic bacteria ([1]; time interval 4 hrs) [ppm] | Concentration required to achieve at least 3 log reduction of aerobic bacteria ([1]; time interval 1 day) [ppm] | Concentration required to achieve at least 3 log reduction of aerobic bacteria ([1]; time interval 3 days) [ppm] | Concentration required to achieve at least 3 log reduction of aerobic bacteria ([1]; time interval 4 days) [ppm] | Concentration required to achieve at least 3 log reduction of aerobic bacteria ([1]; time interval 7 days) [ppm] | Concentration required to achieve at least 3 log reduction of aerobic bacteria [1, 4] [ppm] | Concentration required to achieve at least 3 log reduction of aerobic bacteria [1, 5] [ppm] | Concentration required to achieve at lease 3 log bacterial reduction in 1 hr [2] [ppm] | Concentration required to achieve at least 3 log reduction of anaerobic sulfate reducing bacteria ([2]; time interval 2 hrs) [ppm] | Concentration required to achieve at least 3 log reduction of anaerobic sulfate reducing bacteria ([2]; time interval 4 hrs) [ppm] | Concentration required to achieve at least 3 log reduction of anaerobic sulfate reducing bacteria ([2]; time interval 1 day) [ppm] | Concentration required to achieve at least 3 log reduction of anaerobic sulfate reducing bacteria ([2]; time interval 2 days) [ppm] | Concentration required to achieve at least 3 log reduction of anaerobic sulfate reducing bacteria ([2]; time interval 3 days) [ppm] | Concentration required to achieve at least 3 log reduction of anaerobic sulfate reducing bacteria ([2]; time interval 4 days) [ppm] | Concentration required to achieve at least 3 log reduction of anaerobic sulfate reducing bacteria ([2]; time interval 7 days) [ppm] | Concentration required to achieve at least 3 log reduction of anaerobic sulfate reducing bacteria [2, 4] [ppm] | Concentration required to achieve at least 3 log reduction of anaerobic sulfate reducing bacteria [2, 5] [ppm] | Concentration required to achieve at lease 3 log bacterial reduction in 1 hr [3] [ppm] | also measured |
| --- | --- | --- | --- | --- | --- | --- | --- | --- | --- | --- | --- | --- | --- | --- | --- | --- | --- | --- | --- | --- |
| tetrakis(hydroxymethyl)phosphonium sulfate [THPS] | 25.0 | 25.0 | 12.5 | 12.5 | 25.0 | 25.0 | 100.0 | 100.0 | 44.49 | 50.0 | 25.0 | 25.0 | 12.5 | 6.3 | 6.3 | 6.3 | 12.5 | 25.0 | 44.49 | – |
| O=CCCCC=O [glutaraldehyde] | 25.0 | 25.0 | 6.3 | 6.3 | 6.3 | 12.5 | 25.0 | 25.0 | 29.67 | 12.5 | 12.5 | 12.5 | 12.5 | 25.0 | 25.0 | 25.0 | 25.0 | 50.0 | 44.49 | Efficacy against aerobic bacteria, compared in words ([1]; glutaraldehyde versus hydroxymethyl-substituted phosphorus compounds): higher efficacy against aerobic bacteria; Speed of action on anaerobic sulfate reducing bacteria, compared in words ([2]; glutaraldehyde versus hydroxymethyl-substituted compounds): more rapid results |
